Laboratory results reported in patent US20040259244A1, “Methods, compositions, and growth and differentiation factors for insulin-producing cells” (priority 2002, published 2004).
Square brackets hold non-standard residues; d marks the D form. Ends that are not written are not given here. sY = N[C@@H](Cc1ccc(OS(=O)(=O)O)cc1)C(=O)O

Tested on: conversion of stem cells into insulin producing cells
Format: cell-based
Details: not given

Row | Compound | effect on the conversion of stem cells into insulin producing cells
1 | Cholera Toxin B Subunit | potential positive effect

Same assay, conditions: statistical analysis of insulin content of supernatants, 3 donors, combinatorial array in alginate

Row | Compound | effect on the conversion of stem cells into insulin producing cells
2 | Laminin | potential positive effect
3 | Met-Enkephalin | potential positive effect
4 | C[C@]12C[C@H](O)[C@H]3[C@@H](CCC4=CC(=O)CC[C@@]43C)[C@@H]1CC[C@@H]2C(=O)CO [Corticosterone] | potential positive effect
5 | Substance P: neuropeptide, full length (RPKPQQFFGLM; ends and bridges not checked; UniProt P20366 58-68, looked up) | potential positive effect
6 | CCK8 sulfated: Cholecystokinin octapeptide, sulfated (D[sY]MGWMDF-NH2; ends and bridges not checked; UniProt P06307 96-103, looked up) | potential positive effect
7 | Leu-Enkephalin: Natural opiate pentapeptide (YGGFL) (Leu-enkephalin; UniProt P01210 230-234, looked up) | potential positive effect
8 | LIF: leukemia inhibitory factor, human | potential negative effect
9 | CC(=O)[C@H]1CC[C@H]2[C@@H]3CCC4=CC(=O)CC[C@]4(C)[C@H]3CC[C@]12C [Progesterone] | potential negative effect
10 | Transferrin: a beta globulin in blood plasma capable of combining with ferric ions | potential positive effect
11 | GLP-1: Glucagon like-peptide 1, (7-36) amide, human (HAEGTFTSDVSSYLEGQAAKEFIAWLVKGR-NH2; UniProt P01275 98-127, looked up) | potential negative effect
12 | CCK8 amide: Cholecystokinin (CCK8-amide) (DYMGWMDF-NH2; ends and bridges not checked; UniProt P06307 96-103, looked up) | potential negative effect
13 | Cc1c(C)c2c(c(C)c1O)CCC(C)(C(=O)O)O2 (stereo not drawn) [Trolox] | potential negative effect
14 | Exendin 4: a long acting analog of GLP-1 | potential positive effect
15 | C[S+](C)[O-] [DMSO, dimethyl sulfoxide] | potential positive effect
16 | IGF-2: Insulin-like growth factor 2 | potential positive effect
17 | Insulin: Insulin as medium supplement | potential positive effect
18 | CC[C@H](C)[C@@H]1NC(=O)[C@H](CCCNC(=N)N)NC(=O)[C@H](CC(=O)O)NC(=O)[C@H](CCSC)NC(=O)[C@H](CCCNC(=N)N)NC(=O)CNC(=O)CNC(=O)[C@H](Cc2ccccc2)NC(=O)[C@@H](NC(=O)[C@H](CO)NC(=O)[C@H](CO)NC(=O)[C@H](CCCNC(=N)N)NC(=O)[C@H](CCCNC(=N)N)NC(=O)[C@H](CC(C)C)NC(=O)[C@@H](N)CO)CSSC[C@@H](C(=O)N[C@@H](CC(N)=O)C(=O)N[C@@H](CO)C(=O)N[C@@H](Cc2ccccc2)C(=O)N[C@@H](CCCNC(=N)N)C(=O)N[C@@H](Cc2ccc(O)cc2)C(=O)O)NC(=O)CNC(=O)[C@H](CC(C)C)NC(=O)CNC(=O)[C@H](CO)NC(=O)[C@H](CCC(N)=O)NC(=O)[C@H](C)NC(=O)CNC1=O [ANP] | potential negative effect
19 | VIP: Vasoactive Intestinal Peptide (HSDAVFTDNYTRLRKQMAVKKYLNSILN; ends and bridges not checked; UniProt P01282 125-152, looked up) | potential positive effect
20 | IGF-1: Insulin-like growth factor-I | potential positive effect

Row | Compound | effect on the conversion of stem cells into insulin producing cells
21 | HGF: hepatocyte growth factor | potential negative effect
22 | GRP: Gastrin Releasing Peptide (VPLPAGGGTVLTKMYPRGNHWAVGHLM; ends and bridges not checked; UniProt P07492 24-50, looked up) | potential positive effect
23 | FGF-2: fibroblast growth factor 2 (FGF-basic) | potential negative effect
24 | Caerulein | potential positive effect
25 | EGF: epidermal growth factor (NSDSECPLSHDGYCLHDGVCMYIEALDKYACNCVVGYIGERCQYRDLKWWELR; UniProt P01133 971-1023, looked up) | potential positive effect
26 | vEGF | potential positive effect
27 | FGF-1: FGF acidic | potential positive effect
28 | NC(=O)c1cccnc1 [Nictotinamide, Nicotinamide] | potential positive effect
29 | TGF beta 1: Transforming growth factor beta 1 | potential negative effect
30 | CCCC(=O)[O-].[Na+] [n Butyric Acid] | potential negative effect
31 | GH: growth hormone | potential negative effect
32 | CN(C)C=O [DMF, n-n-dimethylformamide] | potential positive effect
33 | Endothelin 1: polypeptide consisting of 21 amino acid residues (CSCSSLMDKECVYFCHLDIIW; ends and bridges not checked; cysteine pairing not given here; UniProt P05305 53-73, looked up) | potential negative effect
34 | CNP: A 22-amino acid peptide that is a member of the natriuretic peptide family (GLSKGCFGLKLDRIGSMSGLGC; ends and bridges not checked; cysteine pairing not given here; UniProt P23582 105-126, looked up) | potential positive effect
35 | CCCCCC(=O)c1c(O)c(Cl)c(OC)c(Cl)c1O [DIF-1] | potential negative effect
36 | NCCCCN [Putrescine] | potential negative effect
37 | N[C@@H](Cc1cc(I)c(Oc2ccc(O)c(I)c2)c(I)c1)C(=O)O [T3, Triiodothyronine] | potential negative effect
38 | NGF beta: Nerve growth factor | potential positive effect
39 | TGF alpha: Transforming growth factor alpha | potential negative effect
